Source: patent US20170008888A1 (KYORIN PHARMACEUTICAL CO., LTD., priority 2014, published 2017)
Where two headings read alike, the source gives them in different places.

Assays:
[1] = system: human Th17 cells; assay: Cytokine response by in vitro-polarized human Th17 cells stimulated with PMA/ionomycin; type: cell-based; settings: 10 μM compound, PMA/ionomycin 20 h
Procedure: In vitro differentiation of human Th17 cells: Human CD4+ T cells (isolated as described in protocol A) were polarized into Th17 cells as follows: Tissue culture-treated 100 mm plates (Corning, Corning, N.Y.) were coated with 10 μg/ml anti-human CD3 clone OKT3 antibody overnight at 4° C. Polarization was initiated by seeding approximately 2-3 e7 human CD4+ T cells onto the anti-CD3 plates in Polarization media consisting of: RPMI 1640 medium (Lonza, Allendale, N.J.) supplemented with 10% (v/v) charcoal-dextran treated, heat inactivated FBS (Omega Scientific, Tarzana, Calif.), 0.05 mM 2-Mercaptoethanol (Sigma-Aldrich, St. Louis, Mo.), and 1×Pen/Strep Amphotericin B (Lonza), with added recombinant human IL-23 (40 ng/ml) and anti-CD28 clone CD28.2 antibody (2 μg/ml); all recombinant human cytokines and anti-human neutralizing antibodies were purchased from eBioscience (San Diego, Calif.). Cells were incubated in the above Polarization media for 3 days at 37° C. in a humidified atmosphere at 5% CO2. After 3 days, the Polarization media was replaced with Maintenance media, consisting of RPMI 1640/FBS/2-Mercaptoethanol/Pen/Strep Amphotericin B supplemented with recombinant human IL-23 (40 ng/ml) alone, and the cells were re-plated onto regular tissue-culture-treated plates (not anti-CD3 coated). Cells were incubated in the Maintenance media for an additional 3 days at 37° C. in a humidified atmosphere at 5% CO2.
Inhibition of PMA/ionomycin-stimulated cytokine response by in vitro-differentiated human Th17 cells: Human Th17 cells, generated as described above, were seeded at 2e6 cells/ml in RPMI 1640 containing 10% (v/v) charcoal-dextran treated, heat inactivated FBS (Omega Scientific, Tarzana, Calif.), 0.05 mM 2-Mercaptoethanol (Sigma-Aldrich, St. Louis, Mo.), and 1×Pen/Strep Amphotericin B (Lonza, Allendale, N.J.). Cells were pre-treated with test compounds (10 μM) for 1 h at 37° C. in a humidified atmosphere at 5% CO2. Cells were then stimulated with 50 ng/ml phorbol 12-myristate 13-acetate (PMA) (Sigma-Aldrich, St. Louis, Mo.)+1 μg/ml ionomycin (Life Technologies, Grand Island, N.Y.) for 20 h at 37° C. in a humidified atmosphere at 5% CO2. Supernatant was collected and analyzed using Bio-Plex Pro Human Th17 Cytokine 15-Plex Panel (Bio-Rad Laboratories, Hercules, Calif.) as per manufacturer's protocols. Magnetic beads were read on the Bio-Plex MAGPIX multiplex reader instrument using the accompanying xPONENT 4.2 acquisition software (Bio-Rad Laboratories). Data were analyzed via the Bio-Plex Manager software v6.1 (Bio-Rad Laboratories). Cytokine secretion levels from Th17 cells treated with 0.1% DMSO+Stimulation were normalized to 100%.
IL-1β, IL-25, and IL-33 were below the limit of detection under conditions used. The concentrations of the observed analytes from top to bottom, as listed, are as follows: 8899, 567, 174, 99, 10380, 511, 239, 548, 81, 966, 504, and 76223 pg/ml.

[2] = system: diseased primary human lung fibroblasts; assay: Cytokine response by primary diseased human lung fibroblasts stimulated with IL-17A or IL-17F; type: cell-based; settings: Fibroblast, 48 h
Procedure: Primary lung fibroblasts isolated from a patient diagnosed with asthma were obtained from Lonza (Allendale, N.J.) and maintained in FGM-2 fibroblast growth medium (Lonza). Cells were seeded at 1e5 cells/ml and incubated at 37° C. in a humidified atmosphere at 5% CO2 overnight to adhere. Cells were pre-treated with test compounds (10 μM down by ⅕ in a 3- or 4-point serial dilution series) for 1 h at 37° C. in a humidified atmosphere at 5% CO2. DMSO at a final concentration of 0.1% served as the non-inhibited control. Cells were stimulated with 50 ng/ml of either human recombinant IL-17A or IL-17F (eBioscience, San Diego, Calif.), for 48 h. Supernatant was then collected and analyzed for cytokine concentrations using the Bio-Plex Pro Human Cytokine 17-Plex Panel (Bio-Rad Laboratories, Hercules, Calif.) according to the manufacturer's instructions. Magnetic beads were measured on the Bio-Plex MAGPIX multiplex reader instrument using the accompanying xPONENT 4.2 acquisition software (Bio-Rad Laboratories). Data were analyzed via the Bio-Plex Manager software v6.1 (Bio-Rad Laboratories). Only four (+IL-17F) to six (+IL-17A) cytokines were in range of detection under the conditions used.
G-CSF concentrations were below the limit of detection when cells were stimulated with IL-17F.

[3] = read-out: Percent inhibition of IFNγ (relative to DMSO control)
[4] = read-out: Percent inhibition of IL-4 (relative to DMSO control)
[5] = read-out: Percent inhibition of IL-6 (relative to DMSO control)
[6] = read-out: Percent inhibition of IL-10 (relative to DMSO control)
[7] = read-out: Percent inhibition of IL-17A (relative to DMSO control)
[8] = read-out: Percent inhibition of IL-17F (relative to DMSO control)
[9] = read-out: Percent inhibition of IL-21 (relative to DMSO control)
[10] = read-out: Percent inhibition of IL-22 (relative to DMSO control)
[11] = read-out: Percent inhibition of IL-23 (relative to DMSO control)
[12] = read-out: Percent inhibition of IL-31 (relative to DMSO control)
[13] = read-out: Percent inhibition of TNFα (relative to DMSO control)
[14] = read-out: Percent inhibition of sCD40L (relative to DMSO control)
[15] = +50 ng/ml IL-17A, read-out: EC50 values (μM), G-CSF
[16] = +50 ng/ml IL-17A, read-out: EC50 values (μM), IL-6
[17] = +50 ng/ml IL-17A, read-out: EC50 values (μM), IL-8
[18] = +50 ng/ml IL-17A, read-out: EC50 values (μM), MCP-1
[19] = +50 ng/ml IL-17F, read-out: EC50 values (μM), IL-6
[20] = +50 ng/ml IL-17F, read-out: EC50 values (μM), IL-8
[21] = +50 ng/ml IL-17F, read-out: EC50 values (μM), MCP-1

`CCOc1cc(C(=O)N2CCC(N3CCCC3)CC2)ccc1Nc1cc2c(cn1)N(C)C(=O)c1ccccc1N2C` [Compound 46, 3-(2-Ethoxy-4-(4-(pyrrolidin-1-yl)piperidine-1-carbonyl)phenylamino)-5,11-dimethyl-5H-benzo[e]pyrido[3,4-b][1,4]diazepin-10(11H)-one] gave an inhibition at 10 µM [1, 3] of 11.9%, an inhibition at 10 µM [1, 4] of -2.8% and an inhibition at 10 µM [1, 5] of 90.6%. The inhibition at 10 µM [1, 6] was 79.7%, the inhibition at 10 µM [1, 7] was 56.6% and the inhibition at 10 µM [1, 8] was 81.8%. For the same molecule, the inhibition at 10 µM [1, 9] was -6.1%, the inhibition at 10 µM [1, 10] was 74% and the inhibition at 10 µM [1, 11] was -58.8%. The inhibition at 10 µM [1, 12] was -3%, the inhibition at 10 µM [1, 13] was 22% and the inhibition at 10 µM [1, 14] was 36.3%.
`CCOc1cc(C(=O)NCC2CC2)ccc1Nc1cc2c(cn1)N(C)C(=O)c1ccccc1N2C` [Compound 57] gave an inhibition at 10 µM [1, 3] of 17.4%, an inhibition at 10 µM [1, 4] of -11.8% and an inhibition at 10 µM [1, 5] of 93.1%. The inhibition at 10 µM [1, 6] was 80%, the inhibition at 10 µM [1, 7] was 49.5% and the inhibition at 10 µM [1, 8] was 67.4%. For the same molecule, the inhibition at 10 µM [1, 9] was 28.6%, the inhibition at 10 µM [1, 10] was 76.8% and the inhibition at 10 µM [1, 11] was 29.8%. The inhibition at 10 µM [1, 12] was 3%, the inhibition at 10 µM [1, 13] was 5.6% and the inhibition at 10 µM [1, 14] was 32.3%.
In the case of `CCOc1cc(C(=O)N2CCC(N3CCN(C)CC3)CC2)ccc1Nc1cc2c(cn1)N(C)C(=O)c1ccccc1N2C` [Compound 61], the inhibition at 10 µM [1, 3] is reported as 7.6%, the inhibition at 10 µM [1, 4] is reported as -19.5% and the inhibition at 10 µM [1, 5] is reported as 91.4%. The inhibition at 10 µM [1, 6] was 78.6%, the inhibition at 10 µM [1, 7] was 37.5% and the inhibition at 10 µM [1, 8] was 80.9%. For the same molecule, the inhibition at 10 µM [1, 9] was 22.4%, the inhibition at 10 µM [1, 10] was 65.8% and the inhibition at 10 µM [1, 11] was -2.8%. The inhibition at 10 µM [1, 12] was -1.1%, the inhibition at 10 µM [1, 13] was -6.3% and the inhibition at 10 µM [1, 14] was 19%. For the same molecule, the EC50 [2, 15] was 1.99 µM, the EC50 [2, 16] was 6.98 µM and the EC50 [2, 17] was 0.54 µM. For the same molecule, the EC50 [2, 18] was 1.33 µM, the EC50 [2, 19] was 4.45 µM and the EC50 [2, 20] was 0.45 µM. For the same molecule, the EC50 [2, 21] was 1.57 µM.
Molecule `CCOc1cc(C(=O)N2CCNCC2)ccc1Nc1cc2c(cn1)N(C)C(=O)c1ccccc1N2C` [Compound 62] has an inhibition at 10 µM [1, 3] of 11.7%, an inhibition at 10 µM [1, 4] of -17% and an inhibition at 10 µM [1, 5] of 87.8%. It also gave an inhibition at 10 µM [1, 6] of 80.3%, an inhibition at 10 µM [1, 7] of 27.7% and an inhibition at 10 µM [1, 8] of 60%. It also gave an inhibition at 10 µM [1, 9] of 2.5%, an inhibition at 10 µM [1, 10] of 66.2% and an inhibition at 10 µM [1, 11] of 15.8%. It also gave an inhibition at 10 µM [1, 12] of -1.4%, an inhibition at 10 µM [1, 13] of -10.4% and an inhibition at 10 µM [1, 14] of 31.9%.
For `CCOc1cc(C(=O)N2CCC(N3CCN(C)CC3)CC2)ccc1Nc1cc2c(cn1)N(C)C(=O)c1occc1N2C` [Compound 65], the inhibition at 10 µM [1, 3] was -0.6%, the inhibition at 10 µM [1, 4] was 4.6% and the inhibition at 10 µM [1, 5] was 87.3%. For the same molecule, the inhibition at 10 µM [1, 6] was 78.6%, the inhibition at 10 µM [1, 7] was 13.9% and the inhibition at 10 µM [1, 8] was 39.7%. For the same molecule, the inhibition at 10 µM [1, 9] was 0.8%, the inhibition at 10 µM [1, 10] was 61.7% and the inhibition at 10 µM [1, 11] was -79.4%. It also gave an inhibition at 10 µM [1, 12] of -3.2%, an inhibition at 10 µM [1, 13] of 11.3% and an inhibition at 10 µM [1, 14] of 31.6%. For the same molecule, the EC50 [2, 15] was 3.5 µM, the EC50 [2, 16] was 5.69 µM and the EC50 [2, 17] was 0.48 µM. It also gave an EC50 [2, 18] of 1.31 µM, an EC50 [2, 19] of 2.49 µM and an EC50 [2, 20] of 0.52 µM. The EC50 [2, 21] was 1.85 µM.
`CCOc1cc(C(=O)N2CC[C@@H](N(C)C)C2)ccc1Nc1cc2c(cn1)N(C)C(=O)c1ccccc1N2C` [Compound 115] showed an inhibition at 10 µM [1, 3] of 18.4%, an inhibition at 10 µM [1, 4] of 1.5% and an inhibition at 10 µM [1, 5] of 92.5%. The inhibition at 10 µM [1, 6] was 80.1%, the inhibition at 10 µM [1, 7] was 68.3% and the inhibition at 10 µM [1, 8] was 83.5%. The inhibition at 10 µM [1, 9] was -86.1%, the inhibition at 10 µM [1, 10] was 75.7% and the inhibition at 10 µM [1, 11] was -30.7%. The inhibition at 10 µM [1, 12] was 3.4%, the inhibition at 10 µM [1, 13] was 57.1% and the inhibition at 10 µM [1, 14] was 53.7%. The EC50 [2, 15] was 0.86 µM, the EC50 [2, 16] was 1.16 µM and the EC50 [2, 17] was under 0.08 µM. It also gave an EC50 [2, 18] of 0.35 µM, an EC50 [2, 19] of 0.95 µM and an EC50 [2, 20] of under 0.08 µM. It also gave an EC50 [2, 21] of 0.36 µM.
